# Patent US20170354148A1, “SAFENED HERBICIDAL COMPOSITIONS CONTAINING HALAUXIFEN AND METHODS OF USE THEREOF IN BRASSICA SPECIES” (Dow AgroSciences LLC, priority 2016, published 2017)
# “And” between values parts separate entries of the source, which are not always exact repeats. Equal values may be shown once.
# Legend:
# [1] = system: kale/Chinese kale (Brassica alboglabra, BRSAG); test: Example 5 greenhouse trials, postemergence visual injury; settings: for % Visual Injury Obs / Visual Injury Obs: BRSAG
# [2] = system: winter oilseed rape (Brassica napus, BRSNW); test: Example 4 field trials (Europe), postemergence crop safety, visual phytotoxicity; settings: for Mean % Visual Injury / Mean % Visual Deformation: alone or mixed
# [3] = system: spring oilseed rape (Brassica napus, BRSNS); test: as above
# [4] = system: Spring Argentine canola (Brassica napus, BRSNS); test: Example 3 field trials (Canada), postemergence crop safety, visual phytotoxicity
# [5] = BRSNS, trial 1, 17DAA1, 0.62 g ae/ha
# [6] = BRSNS, trial 1, 17DAA1, 1.25 g ae/ha
# [7] = BRSNS, trial 1, 17DAA1, 2.5 g ae/ha
# [8] = BRSNS, trial 1, 17DAA1, 5 g ae/ha
# [9] = BRSNS, trial 1, 32DAA1, 0.62 g ae/ha
compound,measurement,setting,value
"COC(=O)c1nc(-c2ccc(Cl)c(OC)c2F)cc(N)c1Cl [Halauxifen-methyl, methyl 4-amino-3-chloro-6-(4-chloro-2-fluoro-3-methoxyphenyl)-2-pyridineccarboxylate]",% Visual Injury Obs,"[1]; 2.5 g ai/ha alone, 20-22 d",6%
same,% Visual Injury Obs,"[1]; 5 g ai/ha alone, 20-22 d",10%
same,% Visual Injury Obs,"[1]; 10 g ai/ha alone, 20-22 d",16%
same,% Visual Injury Obs,[1]; halauxifen-methyl 2.5 g ai/ha,6%
same,Visual Injury Obs,[1]; halauxifen-methyl 2.5 g ai/ha,6%
same,% Visual Injury Obs,[1]; halauxifen-methyl 5 g ai/ha,10%
same,Visual Injury Obs,[1]; halauxifen-methyl 5 g ai/ha,10%
same,% Visual Injury Obs,[1]; halauxifen-methyl 10 g ai/ha,16%
same,Visual Injury Obs,[1]; halauxifen-methyl 10 g ai/ha,16%
same,Percent (%) Visual Injury BRSAG Obs,[1]; halauxifen-methyl alone 2.5 g ai/ha,6%
same,Percent (%) Visual Injury BRSAG Obs,[1]; halauxifen-methyl alone 5 g ai/ha,10%
same,Percent (%) Visual Injury BRSAG Obs,[1]; halauxifen-methyl alone 10 g ai/ha,16%
same,Mean % Visual Injury,"[2]; 6DAA1, halauxifen-methyl 5, clopyralid-olamine 120 g ae/ha",1%
same,Mean % Visual Injury,"[2]; 7DAA1, halauxifen-methyl 5, clopyralid-olamine 120 g ae/ha",1%
same,Mean % Visual Injury,"[2]; 19DAA1, halauxifen-methyl 5, clopyralid-olamine 120 g ae/ha",1%
same,Mean % Visual Growth Inhibition,"[2]; 85DAA1, 5 g ae/ha alone",5.0%
same,Mean % Visual Deformation,"[2]; Trial 1, 27DAA1, halauxifen-methyl 5, clopyralid-olamine 120 g ae/ha",0%
same,Mean % Visual Deformation,"[2]; Trial 2, 6DAA1, halauxifen-methyl 5, clopyralid-olamine 120 g ae/ha",1%
same,Mean % Visual Deformation,"[2]; Trial 2, 7DAA1, halauxifen-methyl 5, clopyralid-olamine 120 g ae/ha",1%
same,Mean % Visual Growth Inhibition,"[3]; Trial 1, 14DAA1, 5 g ae/ha alone",3%
same,Mean % Visual Growth Inhibition,"[3]; Trial 1, 14DAA1, 6 g ae/ha alone",3%
same,Mean % Visual Growth Inhibition,"[3]; Trial 1, 14DAA1, 10 g ae/ha alone",3%
same,Mean % Visual Growth Inhibition,"[3]; Trial 1, 14DAA1, 12 g ae/ha alone",3%
same,Mean % Visual Growth Inhibition,"[3]; Trial 2, 17DAA1, 5 g ae/ha alone",10%
same,Mean % Visual Growth Inhibition,"[3]; Trial 2, 24DAA1, 5 g ae/ha alone",10%
same,Mean % Visual Injury,"[4]; BRSNS, 7DAAA, 5 g ae/ha (Tables 10, 11)",0.8%
same,Mean % Visual Injury,"[4]; BRSNS, 15DAAA, 5 g ae/ha (Tables 10, 11)",50.5%
same,Mean % Visual Injury,"[4]; BRSNS, 27DAAA, 5 g ae/ha (Tables 10, 11)",48.5%
same,Mean % Visual Injury,"[4]; BRSNS, 57DAAA, 5 g ae/ha (Tables 10, 11)",30.3%
same,Mean % Visual Injury,"[4]; BRSNS, trial 1, 7DAA1, 1.25 g ae/ha",1.8%
same,Mean % Visual Injury,"[4]; BRSNS, trial 1, 7DAA1, 2.5 g ae/ha",1.8%
same,Mean % Visual Injury,"[4]; BRSNS, trial 1, 7DAA1, 5 g ae/ha",2.0%
same,Mean % Visual Epinasty,[4]; [5],2.5%
same,Mean % Visual Injury,[4]; [5],2.5%
same,Mean % Visual Epinasty,[4]; [6],2.5%
same,Mean % Visual Injury,[4]; [6],2.5%
same,Mean % Visual Epinasty,[4]; [7],3.0%
same,Mean % Visual Injury,[4]; [7],3.3%
same,Mean % Visual Epinasty,[4]; [8],2.5%
same,Mean % Visual Injury,[4]; [8],3.3%
same,Mean % Visual Epinasty,[4]; [9],5.0%
same,Mean % Visual Injury,[4]; [9],8.3%
same,Mean % Visual Injury,"[4]; BRSNS, trial 1, 32DAA1, 1.25 g ae/ha",13.0%
same,Mean % Visual Injury,"[4]; BRSNS, trial 1, 49DAA1, 0.62 g ae/ha",0.3%
same,Mean % Visual Injury,"[4]; BRSNS, trial 1, 49DAA1, 1.25 g ae/ha",2.3%
same,Mean % Visual Injury,"[4]; BRSNS, trial 1, 49DAA1, 2.5 g ae/ha",2.5%
same,Mean % Visual Injury,"[4]; BRSNS, trial 2, 8DAA1, 5 g ae/ha",4.0% and 3.0% and 2.0%
same,Mean % Visual Injury,"[4]; BRSNS, trial 2, 8DAA1, 10 g ae/ha",4.8% and 3.3% and 2.8% and 2.0%
same,Mean % Visual Injury,"[4]; BRSNS, trial 2, 17DAA1, 10 g ae/ha",35.5%
same,Mean % Visual Epinasty,"[4]; BRSNS, trial 2, 35DAA1, 10 g ae/ha",4.0% and 2.8%
same,Mean % Visual Injury,"[4]; BRSNS, trial 2, 48DAA1, 5 g ae/ha",1.8% and 1.5%
same,Mean % Visual Epinasty,"[4]; BRSNS, trial 3, 6DAA1, 5 g ae/ha",9.5%
same,Mean % Visual Epinasty,"[4]; BRSNS, trial 3, 6DAA1, 10 g ae/ha",8.8%
same,Mean % Visual Epinasty,"[4]; BRSNS, trial 3, 23DAA1, 2.5 g ae/ha",38.8%
same,Mean % Visual Epinasty,"[4]; BRSNS, trial 3, 23DAA1, 5 g ae/ha",50.0%
same,Mean % Visual Injury,"[4]; BRSNS, trial 3, 33DAA1, 5 g ae/ha",6.5% and 2.0%
same,Mean % Visual Injury,"[4]; BRSNS, trial 3, 33DAA1, 10 g ae/ha",5.5%
same,Mean % Visual Injury,"[4]; BRSNS, trial 3, 69DAA1, 2.5 g ae/ha",3.0%
same,Mean % Visual Injury,"[4]; BRSNS, trial 3, 69DAA1, 5 g ae/ha",4.0%
same,Mean % Visual Injury,"[4]; BRSNS, trial 4, 8DAA1, 5 g ae/ha",8.0%
same,Mean % Visual Injury,"[4]; BRSNS, trial 4, 15DAA1, 0.62 g ae/ha",3.5%
same,Mean % Visual Injury,"[4]; BRSNS, trial 4, 15DAA1, 2.5 g ae/ha",14.3%
same,Mean % Visual Epinasty,"[4]; BRSNS, trial 4, 17DAA1, 5 g ae/ha",23.3%
same,Mean % Visual Injury,"[4]; BRSNS, trial 4, 41DAA1, 5 g ae/ha",8.0%
same,Mean % Visual Injury,"[4]; BRSNS, trial 4, 82DAA1, 5 g ae/ha",6.0%
same,Mean % Visual Injury,"[4]; BRSNS, trial 5, 7DAA1, 5 g ae/ha",7.5%
same,Mean % Visual Injury,"[4]; BRSNS, trial 5, 7DAA1, 10 g ae/ha",9.0% and 3.5% and 2.0% and 1.5%
same,Mean % Visual Injury,"[4]; BRSNS, trial 5, 15DAA1, 5 g ae/ha",27.0%
same,Mean % Visual Injury,"[4]; BRSNS, trial 5, 15DAA1, 10 g ae/ha",9.0% and 2.5% and 1.0%
same,Mean % Visual Injury,"[4]; BRSNS, trial 5, 36DAA1, 10 g ae/ha",6.0%
same,Mean % Visual Injury,"[4]; BRSNS, trial 5, 79DAA1, 10 g ae/ha",3.0% and 4.5% and 5.3%
same,Mean % Visual Injury,"[4]; BRSNS, trial 6, 6DAA1, 5 g ae/ha",24.5%
same,Mean % Visual Injury,"[4]; BRSNS, trial 6, 6DAA1, 10 g ae/ha",27.5%
same,Mean % Visual Injury,"[4]; BRSNS, trial 6, 23DAA1, 2.5 g ae/ha",38.8%
same,Mean % Visual Injury,"[4]; BRSNS, trial 6, 23DAA1, 5 g ae/ha",52.5%
same,Mean % Visual Injury,"[4]; BRSNS, trial 6, 33DAA1, 2.5 g ae/ha",22.5%
same,Mean % Visual Injury,"[4]; BRSNS, trial 6, 33DAA1, 5 g ae/ha",43.0%
same,Mean % Visual Injury,"[4]; BRSNS, trial 6, 59DAA1, 2.5 g ae/ha",28.5%
same,Mean % Visual Injury,"[4]; BRSNS, trial 7, 17DAA1, 5 g ae/ha",45.0%
same,Mean % Visual Injury,"[4]; BRSNS, trial 7, 27DAA1, 5 g ae/ha",34.0%
same,Mean % Visual Injury,"[4]; BRSNS, trial 8, 7DAA1, 5 g ae/ha",0.8%
same,Mean % Visual Injury,"[4]; BRSNS, trial 8, 57DAA1, 0.62 g ae/ha",4.8%
same,Mean % Visual Injury,"[4]; BRSNS, trial 9, 27DAA1, 5 g ae/ha",6.8%
same,Mean % Visual Injury,"[4]; BRSNS, trial 9, 60DAA1, 10 g ae/ha",22.5% and 12.5%
same,Mean % Visual Injury,"[4]; Table 14, 7DAAA, halauxifen-methyl 5, quinclorac 101 g ae/ha, alone or mixed",0.8%
same,Mean % Visual Injury,"[4]; Table 14, 15DAAA, halauxifen-methyl 5, quinclorac 101 g ae/ha, alone or mixed",50.5%
